Laboratory results from patent publication US20240018145A1, “[…]-DEPENDENT EN[…] TREATING OR […]” (priority 2020, published 2024).

System: FLU A (PR/8/34)
Test: Flu A Neuraminidase Antiviral Assay
Assay type: cell-based

Structure (SMILES)	EC50 [µM]
Cc1ccccc1C1C(CC(F)(F)F)CCC2N(C)C(=O)c3c(O)c(=O)ccn3N12 (single isomer, unassigned) [Compound 120B, 7-hydroxy-5-methyl-1-(o-tolyl)-2-(2,2,2-trifluoroethyl)-1,2,3,4,4a,5-hexahydrodipyrido[1,2-b:2′,1′-f][1,2,4]triazine-6,8-dione]	0.0019
CN1C(=O)c2c(O)c(=O)ccn2N2C(c3cccc(F)c3)C(CC(F)(F)F)CCC12 (single isomer, unassigned) [Compound 121A, 1-(3-fluorophenyl)-7-hydroxy-5-methyl-2-(2,2,2-trifluoroethyl)-1,2,3,4,4a,5-hexahydrodipyrido[1,2-b:2′,1′-f][1,2,4]triazine-6,8-dione]	0.431
CN1C(=O)c2c(O)c(=O)ccn2N2C(c3cccc(F)c3)C(CC(F)(F)F)CCC12 (single isomer, unassigned) [Compound 121B, 1-(3-fluorophenyl)-7-hydroxy-5-methyl-2-(2,2,2-trifluoroethyl)-1,2,3,4,4a,5-hexahydrodipyrido[1,2-b:2′,1′-f][1,2,4]triazine-6,8-dione]	0.0058
CN1C(=O)c2c(O)c(=O)ccn2N2C(c3ccc(F)cc3)C(CC(F)(F)F)CCC12 (single isomer, unassigned) [Compound 122A, 1-(4-fluorophenyl)-7-hydroxy-5-methyl-2-(2,2,2-trifluoroethyl)-1,2,3,4,4a,5-hexahydrodipyrido[1,2-b:2′,1′-f][1,2,4]triazine-6,8-dione]	0.343
CN1C(=O)c2c(O)c(=O)ccn2N2C(c3ccc(F)cc3)C(CC(F)(F)F)CCC12 (single isomer, unassigned) [Compound 122B, 1-(4-fluorophenyl)-7-hydroxy-5-methyl-2-(2,2,2-trifluoroethyl)-1,2,3,4,4a,5-hexahydrodipyrido[1,2-b:2′,1′-f][1,2,4]triazine-6,8-dione]	0.0052
CN1C(=O)c2c(O)c(=O)ccn2N2C(c3c(F)cccc3F)C(CC(F)(F)F)CCC12 (single isomer, unassigned) [Compound 123A, 1-(2,6-difluorophenyl)-7-hydroxy-5-methyl-2-(2,2,2-trifluoroethyl)-1,2,3,4,4a,5-hexahydrodipyrido[1,2-b:2′,1′-f][1,2,4] triazine-6,8-dione]	> 8.1
CN1C(=O)c2c(O)c(=O)ccn2N2C(c3c(F)cccc3F)C(CC(F)(F)F)CCC12 (single isomer, unassigned) [Compound 123B, 1-(2,6-difluorophenyl)-7-hydroxy-5-methyl-2-(2,2,2-trifluoroethyl)-1,2,3,4,4a,5-hexahydrodipyrido[1,2-b:2′,1′-f][1,2,4] triazine-6,8-dione]	0.0042
CN1C(=O)c2c(O)c(=O)ccn2N2C(c3c(F)cccc3F)C(CC(F)(F)F)CCC12 (single isomer, unassigned) [Compound 123C, 1-(2,6-difluorophenyl)-7-hydroxy-5-methyl-2-(2,2,2-trifluoroethyl)-1,2,3,4,4a,5-hexahydrodipyrido[1,2-b:2′,1′-f][1,2,4] triazine-6,8-dione]	> 8.1
CN1C(=O)c2c(O)c(=O)ccn2N2C(c3c(F)cccc3F)C(CC(F)(F)F)CCC12 (single isomer, unassigned) [Compound 123D, 1-(2,6-difluorophenyl)-7-hydroxy-5-methyl-2-(2,2,2-trifluoroethyl)-1,2,3,4,4a,5-hexahydrodipyrido[1,2-b:2′,1′-f][1,2,4] triazine-6,8-dione]	0.0269
CN1C(=O)c2c(O)c(=O)ccn2N2C(c3ccccc3)C(CCC(F)F)CCC12 (single isomer, unassigned) [Compound 124A, 2-(3,3-difluoropropyl)-7-hydroxy-5-methyl-1-phenyl-1,2,3,4,4a,5-hexahydrodipyrido[1,2-b:2′,1′-f][1,2,4]triazine-6,8-dione]	0.871
CN1C(=O)c2c(O)c(=O)ccn2N2C(c3ccccc3)C(CCC(F)F)CCC12 (single isomer, unassigned) [Compound 124B, 2-(3,3-difluoropropyl)-7-hydroxy-5-methyl-1-phenyl-1,2,3,4,4a,5-hexahydrodipyrido[1,2-b:2′,1′-f][1,2,4]triazine-6,8-dione]	0.0016
